# Measurements taken from ChEMBL document CHEMBL5244214, “An update on small molecule strategies targeting leishmaniasis” (Eur J Med Chem, 2018).
# Key:
# [1] = Cytotoxicity against mouse peritoneal macrophages assessed as reduction in cell viability incubated for 24 hrs by MTT assay; assay type: toxicity, cell-based, Peritoneal macrophage
# Leishmania major [2] = assay: Antileishmanial activity against Leishmania major MRHO/IR/75/E promastigotes assessed as parasite growth inhibition incubated for 24 hrs by MTT assay; assay type: functional, organism-based
# Leishmania donovani = assay: Antileishmanial activity against Leishmania donovani promastigotes assessed as parasite growth inhibition; assay type: functional, organism-based
# Leishmania major [3] = assay: Antileishmanial activity against Leishmania major assessed as inhibition of parasite growth; assay type: functional, organism-based
# Leishmania aethiopica [4] = assay: Antileishmanial activity against Leishmania aethiopica axenic amastigotes assessed as parasite growth inhibition incubated for 72 hrs by resazurin staining based analysis; assay type: functional, organism-based
# Leishmania aethiopica [5] = assay: Antileishmanial activity against Leishmania aethiopica promastigotes assessed as parasite growth inhibition incubated for 24 hrs by alamar blue staining based analysis; assay type: functional, organism-based
# Leishmania major [6] = assay: Antileishmanial activity against Leishmania major promastigotes assessed as parasite growth inhibition at 100 uM incubated for 72 hrs by MTT assay; assay type: functional; details: read-out: GI
# Leishmania major [7] = assay: Antileishmanial activity against Leishmania major promastigotes assessed as parasite growth inhibition at 1 uM incubated for 72 hrs by MTT assay; assay type: functional; details: read-out: GI
# Leishmania major [8] = assay: Antileishmanial activity against Leishmania major promastigotes assessed as parasite growth inhibition at 10 uM incubated for 72 hrs by MTT assay; assay type: functional; details: read-out: GI
# Leishmania major [9] = assay: Antileishmanial activity against Leishmania major promastigotes assessed as parasite growth inhibition at 0.1 uM incubated for 72 hrs by MTT assay; assay type: functional; details: read-out: GI
smiles,measurement,setting,value
CCCNC(=O)CSc1nnc(-c2ccc([N+](=O)[O-])o2)s1,IC50 at 24 h,[1],59.7 µM
same,IC50,Leishmania major [2],19.5 µM
O=C(CSc1nnc(-c2ccc([N+](=O)[O-])o2)s1)NCc1ccccc1,IC50 at 24 h,[1],86.9 µM
same,IC50,Leishmania major [2],46.7 µM
O=c1oc2ccccc2c(O)c1C(c1ccoc1)N1CCOCC1 (stereo unspecified),IC50,Leishmania donovani,14.7 µM
COCCCNc1nnc(-c2ccc([N+](=O)[O-])s2)s1,IC50,Leishmania major [3],3 µM
CN1CCN(C(c2c(O)c3ccccc3oc2=O)c2c[nH]c3ccccc23)CC1 (stereo unspecified),IC50,Leishmania donovani,13.1 µM
Cc1cccc2cc(C(c3c(O)c4ccccc4oc3=O)N3CCN(C)CC3)c(Cl)nc12 (stereo unspecified),IC50,Leishmania donovani,6.9 µM
COc1ccc(CCNC(=O)CSc2nnc(-c3ccc([N+](=O)[O-])o3)s2)cc1OC,IC50 at 24 h,[1],56 µM
same,IC50,Leishmania major [2],19.1 µM
COc1nc(OC)nc(N(CC(=O)[C@@H](N)C(C)C)CC(=O)[C@@H](N)C(C)C)n1,IC50,Leishmania aethiopica [4],0.22 µM
same,IC50,Leishmania aethiopica [5],1.4 µM
O=[N+]([O-])c1ccc(-c2nnc(NCCCO)s2)s1,IC50,Leishmania major [3],3 µM
COc1ccc(NC(=O)CCC(=O)O)c([N+](=O)[O-])c1,inhibition of growth at 100 µM,Leishmania major [6],56.8%
same,inhibition of growth at 1 µM,Leishmania major [7],45.5%
same,inhibition of growth at 10 µM,Leishmania major [8],50.4%
same,inhibition of growth at 0.1 µM,Leishmania major [9],59.3%
C[C@@H]1[C@H](O)[C@@H](C)/C=C/C=C/C=C/C=C/C=C/C=C/C=C/[C@H](O[C@@H]2O[C@H](C)[C@@H](O)[C@H](N)[C@@H]2O)C[C@@H]2O[C@](O)(C[C@@H](O)C[C@@H](O)[C@H](O)CC[C@@H](O)C[C@@H](O)CC(=O)O[C@H]1C)C[C@H](O)[C@H]2C(=O)O [AMPHOTERICIN B],inhibition of growth at 100 µM,Leishmania major [6],79.8%
same,inhibition of growth at 1 µM,Leishmania major [7],74.8%
same,inhibition of growth at 10 µM,Leishmania major [8],76.3%
same,inhibition of growth at 0.1 µM,Leishmania major [9],69.8%
